# How the values were obtained:
# [1] = test system: TNFα-induced IL6 mRNA; assay: Dose-response on TNFα-induced IL6 mRNA levels; format: cell-based, human; details: read-out: IC50, inflammatory gene inhibition (TNFα-induced transcription, FIG. 3D)
# Experimental: Bars represent the mean of at least 3±SEM independent experiments. The asterisks denote statistical significance differences relative to DMSO+TNFα control according to Student's t tests (typically one tailed, paired): *p<0.05; **p<0.01; ***p<0.005; ****p<0.001. […] Shown are mRNA levels of A20 (normalized to GAPDH) in Hela cells treated with SPI-21 and TNFα and incubated with actinomycin D for the indicated time points, as determined by real-time qPCR. The data points present the mean of 3±SEM independent experiments. […] Shown are levels of mature and immature transcripts in cells incubated for 1 hour with DMSO (vehicle control) or 50 μM of SPI-21 or SPI-18 followed by treatment with TNFα for an additional one hour, as determined by real-time qPCR using primers spanning exons 3 and 4 (mature, black arrows shown in the scheme of G, SEQ ID NOs: 47 and 48) or intron 1 and exon 2 (immature, red arrows shown in the scheme of G, SEQ ID NOs: 49 and 50). […] DMSO (vehicle control), SPI-21 or SPI-18 treated cells were induced by TNFα for the indicated times and the levels of IκBα and β-Tubulin proteins were analyzed by western blot as indicated. […] The occupancy of the A20 gene was analyzed by qPCR using primers from the first (A, SEQ ID NOs: 55 and 56), third (B, SEQ ID NOs: 57 and 58) and last (C, SEQ ID NOs: 59 and 60) exon-intron junctions. […]
# [2] = test system: HSPA6 and HSPA1A; assay: mRNA of heat shock genes HSPA6 and HSPA1A, HeLa, RT-qPCR; format: cell-based, human
# Experimental: RNA analysis—Total RNA was extracted using Tri-reagent (Bio-Lab Chemicals) and Direct-Zol™ RNA MiniPrep kit (Zymo Research). Following, cDNA was synthesized from […] of total RNA using a High-Capacity cDNA Reverse Transcription Kit (ABI, Thermo Fisher Scientific). cDNA samples were analyzed by quantitative PCR (qPCR) in a ViiA 7 Real-Time PCR System using Fast qPCRBIO SYBR Green Mix (PCR Biosystems).
# A major limitation of KD and KO studies is the prolonged deficiency of the target protein. Small molecule inhibitors on the other hand, inactivate their target shortly following their application. […] Reads were aligned to the human genome and normalized expression of each gene was determined. Subsequently, the following ratios were calculated: TNFα vs. control, which describes the response to TNFα; SPI-21 vs. control, which describes the effect of SPI-21 on gene expression under basal conditions; and SPI-21+TNFα vs. TNFα, which describes the effect of SPI-21 under TNFα-induced conditions. […] To test this possibility, cells were treated with SPI-21 for 2 and 24 hours and the levels of the heat shock genes HSPA6 and HSPA1A were determined by RT-qPCR. […] To further test the idea of kinetically distinct Spt5 target genes, the global effect of long-term SPI-21 treatment (24 hours) was determined by RNA-seq and the affected genes between the short and long-term treatments were compared. […]
Compound,IC50 [1] [µM],levels of heat shock genes HSPA6 and HSPA1A ([2]; 2 hours treatment),extent of activation of HSPA6 and HSPA1A ([2]; 24 hours treatment)
Nc1ccccc1SC(CC(=O)c1cccs1)c1cccs1 (stereo not drawn) [SPI-18],39,,
COc1ccc(C=CC(=O)c2cc(O)ccc2O)cc1 [SPI-21],,strongly up-regulated,substantially smaller

# Source: US12661353B2, “SPT5 inhibitors and uses thereof” (Yeda Research and Development Co. Ltd., priority 2020, dated 2026)
